Reference: publication PMC7750480, “A hybrid approach reveals the allosteric regulation of GTP cyclohydrolase I” (Proceedings of the National Academy of Sciences of the …, 2020)

What was measured:
GCH1 WT = target: T1, GCH1 WT (Homo sapiens, UniProt P30793); experiment: differential scanning fluorimetry (DSF), WT GCH1; format: binding; conditions: protein melting point in presence of GTP
T1 construct: The hGCH1 (42-250, N-terminal 6xHis Tag and TEV cleavage site); 6xHis (N); TEV cleavage site (N); made in house; host or cells: E. coli BL21(DE3)
T1 sequence (P30793 42-250): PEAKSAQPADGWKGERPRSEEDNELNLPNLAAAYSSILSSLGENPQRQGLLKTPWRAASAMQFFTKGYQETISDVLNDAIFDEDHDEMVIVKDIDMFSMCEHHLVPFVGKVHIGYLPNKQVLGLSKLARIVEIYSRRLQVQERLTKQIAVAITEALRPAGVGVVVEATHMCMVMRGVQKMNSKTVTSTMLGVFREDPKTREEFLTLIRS
Method: (§1) The Tm of proteins and protein complexes was determined by DSF using the Thermofluor Bio-Rad CFX384 and the Bio-Rad CFX Manager software. Ten micromolar protein solution was equipped with 5× SYPRO Orange Protein Gel Stain (Invitrogen) reaching a total volume of 10 μL. Effector molecules and GFRP were added in different concentrations to test their influence on thermal stability; 384 well plates were heated up using a temperature ramp from 15 °C to 95 °C in 1 °C/min steps.

GCH1 E128A = target: T2, GCH1 E128A (Homo sapiens, UniProt P30793, E128A); experiment: differential scanning fluorimetry (DSF), E128A; format: binding; conditions: protein melting point in presence of GTP
T2 construct: The hGCH1 (42-250, N-terminal 6xHis Tag and TEV cleavage site); 6xHis (N); TEV cleavage site (N); made in house; host or cells: E. coli BL21(DE3)
T2 sequence (P30793 42-250 E128A): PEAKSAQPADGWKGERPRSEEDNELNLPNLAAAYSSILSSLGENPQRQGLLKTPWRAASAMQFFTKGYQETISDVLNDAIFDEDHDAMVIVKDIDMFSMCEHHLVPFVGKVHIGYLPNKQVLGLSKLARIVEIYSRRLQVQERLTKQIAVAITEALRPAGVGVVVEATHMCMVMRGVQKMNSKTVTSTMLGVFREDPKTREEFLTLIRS
Method: as §1

GCH1 D127A = target: T3, GCH1 D127A (Homo sapiens, UniProt P30793, D127A); experiment: differential scanning fluorimetry (DSF), D127A; format: binding
T3 construct: The hGCH1 (42-250, N-terminal 6xHis Tag and TEV cleavage site); 6xHis (N); TEV cleavage site (N); made in house; host or cells: E. coli BL21(DE3)
T3 sequence (P30793 42-250 D127A): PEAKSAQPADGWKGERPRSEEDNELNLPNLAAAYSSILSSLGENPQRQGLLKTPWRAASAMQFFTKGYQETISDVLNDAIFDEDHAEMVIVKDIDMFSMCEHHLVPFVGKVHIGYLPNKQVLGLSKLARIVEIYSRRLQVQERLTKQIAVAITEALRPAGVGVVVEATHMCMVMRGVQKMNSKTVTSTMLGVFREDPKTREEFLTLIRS
Method: as §1

GCH1 F122A = target: T4, GCH1 F122A (Homo sapiens, UniProt P30793, F122A); experiment: differential scanning fluorimetry (DSF), F122A; format: binding
T4 construct: The hGCH1 (42-250, N-terminal 6xHis Tag and TEV cleavage site); 6xHis (N); TEV cleavage site (N); made in house; host or cells: E. coli BL21(DE3)
T4 sequence (P30793 42-250 F122A): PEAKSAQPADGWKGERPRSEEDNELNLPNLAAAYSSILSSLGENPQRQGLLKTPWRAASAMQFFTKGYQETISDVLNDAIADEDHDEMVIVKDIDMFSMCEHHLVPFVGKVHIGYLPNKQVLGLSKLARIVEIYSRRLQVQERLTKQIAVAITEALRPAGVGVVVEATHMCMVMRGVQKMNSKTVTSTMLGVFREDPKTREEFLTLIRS
Method: as §1

GCH1 H126A = target: T5, GCH1 H126A (Homo sapiens, UniProt P30793, H126A); experiment: differential scanning fluorimetry (DSF), H126A; format: binding
T5 construct: The hGCH1 (42-250, N-terminal 6xHis Tag and TEV cleavage site); 6xHis (N); TEV cleavage site (N); made in house; host or cells: E. coli BL21(DE3)
T5 sequence (P30793 42-250 H126A): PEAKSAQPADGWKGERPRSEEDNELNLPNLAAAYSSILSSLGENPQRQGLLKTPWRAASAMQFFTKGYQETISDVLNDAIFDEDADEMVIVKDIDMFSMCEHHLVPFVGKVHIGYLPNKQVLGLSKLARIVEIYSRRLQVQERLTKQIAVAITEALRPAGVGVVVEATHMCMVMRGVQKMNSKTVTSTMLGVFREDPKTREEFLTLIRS
Method: as §1

GCH1 R235A = target: T6, GCH1 R235A (Homo sapiens, UniProt P30793, R235A); experiment: differential scanning fluorimetry (DSF), R235A; format: binding
T6 construct: The hGCH1 (42-250, N-terminal 6xHis Tag and TEV cleavage site); 6xHis (N); TEV cleavage site (N); made in house; host or cells: E. coli BL21(DE3)
T6 sequence (P30793 42-250 R235A): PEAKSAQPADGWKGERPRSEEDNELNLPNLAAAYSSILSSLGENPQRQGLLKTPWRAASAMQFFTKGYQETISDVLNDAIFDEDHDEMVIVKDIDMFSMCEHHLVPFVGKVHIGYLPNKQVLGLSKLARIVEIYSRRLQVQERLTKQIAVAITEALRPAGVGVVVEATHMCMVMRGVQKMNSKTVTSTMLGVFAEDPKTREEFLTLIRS
Method: as §1

GCH1 R241A = target: T7, GCH1 R241A (Homo sapiens, UniProt P30793, R241A); experiment: differential scanning fluorimetry (DSF), R241A; format: binding
T7 construct: The hGCH1 (42-250, N-terminal 6xHis Tag and TEV cleavage site); 6xHis (N); TEV cleavage site (N); made in house; host or cells: E. coli BL21(DE3)
T7 sequence (P30793 42-250 R241A): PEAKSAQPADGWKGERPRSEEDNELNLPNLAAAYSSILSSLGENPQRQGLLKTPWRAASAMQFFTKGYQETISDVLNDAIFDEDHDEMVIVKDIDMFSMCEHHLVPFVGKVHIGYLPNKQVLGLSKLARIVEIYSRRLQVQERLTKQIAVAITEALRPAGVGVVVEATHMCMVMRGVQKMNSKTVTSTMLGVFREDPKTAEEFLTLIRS
Method: as §1

GCH1 = target: T8, GCH1 (Homo sapiens, UniProt P30793); experiment: STD NMR assay with active site reporter ligand GTP; format: binding; conditions: addition of another active site binder
T8 construct: The hGCH1 (42-250, N-terminal 6xHis Tag and TEV cleavage site); 6xHis (N); TEV cleavage site (N); made in house; host or cells: E. coli BL21(DE3)
T8 sequence (P30793 42-250): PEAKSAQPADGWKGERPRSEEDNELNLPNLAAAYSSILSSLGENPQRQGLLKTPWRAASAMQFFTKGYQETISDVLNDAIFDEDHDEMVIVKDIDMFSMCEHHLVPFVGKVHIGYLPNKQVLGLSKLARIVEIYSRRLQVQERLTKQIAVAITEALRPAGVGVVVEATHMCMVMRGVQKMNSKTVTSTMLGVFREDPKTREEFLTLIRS
Excerpt: Supplemental Figure 6: Detection of product formation and STD NMR assay. A) Enzyme activity assay for GCH1 based on colorimetric detection of H2NTP or 1H-NMR detection of formate. […]
inhibitor (e.g. BH4). B) STD NMR is capable to detect GTP binding (green). Addition of another active site binder (8-oxo […]
STD NMR enhancement of substrate GTP in the presence of allosteric regulator BH4 (red). This screening assay allows for the identification of allosteric binders. C) Correlation of activity in functional NMR assay and STD NMR enhancement of active site reporter ligand GTP.
(1 picture or pasted object on this page, not shown here)

[1] = substrate: Nc1nc2c(ncn2[C@@H]2O[C@H](COP(=O)(O)OP(=O)(O)OP(=O)(O)O)[C@@H](O)[C@H]2O)c(=O)[nH]1; experiment: enzyme kinetics, H2NTP formation at 330 nm, WT GCH1; format: biochemical, human; conditions: other: substrate GTP 1-2000 µM, without GFRP, not stimulated/inhibited; pH 7.5; 37.0 °C
Method: In order to test the role of the key residues H126, D127, E128, R235, and R241 involved in allosteric inhibitor binding and conformational change, various point mutants were prepared and tested for their ability to be stimulated and inhibited by effector molecules in the presence or absence of GFRP. […] Enzyme activity was evaluated using an activity assay measuring the formation of the product H2NTP at 330 nm with increasing GTP concentrations.
GTPCH-I specific enzyme activity was determined by spectrometric measuring of the concentration of its direct product H2NTP. Synergy H1 (BioTek Instruments) and Gen5 2.01 software were used to evaluate H2NTP concentration and the maximal turnover rate (Vmax) within each measuring interval. H2NTP concentration was measured at 330 nm over a measuring period of 2 h using a measuring interval of 2 min to 4 min at 37 °C. Samples were prepared using 2 μM GTPCH-I, varying concentrations of GTP (1 μM to 2,000 µM) and in the absence or presence of 15 mM phenylalanine, 0.1 mM BH4, or 3 μM GFRP. The assay buffer used was 50 mM Tris/HCl, pH 7.5, 100 mM KCl. The specific enzyme activity (A) was calculated using the path length of 0.15 cm and the extinction coefficient […] = 6,300 M^−1⋅cm^−1 H2NTP. […] All enzymatic data were, at least, measured in triplicate (n = 3).

[2] = protein melting point in presence of GTP
[3] = shift of melting point with GTP

Molecule: Nc1nc2c(ncn2[C@@H]2O[C@H](COP(=O)(O)OP(=O)(O)OP(=O)(O)O)[C@@H](O)[C@H]2O)c(=O)[nH]1 [GTP, Guanosine triphosphate]
- TM + GTP (GCH1 WT): 83.2 °C
- TM + GTP (GCH1 E128A): 78.5 °C
- TM + GTP (GCH1 D127A; [2]): 78.0 °C
- ΔTM WT+GTP (GCH1 D127A; [3]): 5.0 °C
- TM + GTP (GCH1 F122A; [2]): 75.2 °C
- ΔTM WT+GTP (GCH1 F122A; [3]): 4.2 °C
- TM + GTP (GCH1 H126A; [2]): 80.0 °C
- ΔTM WT+GTP (GCH1 H126A; [3]): 6.0 °C
- TM + GTP (GCH1 R235A; [2]): 81.2 °C
- ΔTM WT+GTP (GCH1 R235A; [3]): 11.2 °C
- TM + GTP (GCH1 R241A; [2]): 86.2 °C
- ΔTM WT+GTP (GCH1 R241A; [3]): 17.7 °C

Molecule: Nc1nc2c([nH]c(=O)n2[C@@H]2O[C@H](COP(=O)(O)OP(=O)(O)OP(=O)(O)O)[C@@H](O)[C@H]2O)c(=O)[nH]1 [8-oxo GTP, 8-oxo-GTP]
- effect on STD NMR signal of GTP (active site competition) (GCH1): loss of the signal

B1: GCH1 (WT) (Homo sapiens) (protein)
chain: PEAKSAQPADGWKGERPRSEEDNELNLPNLAAAYSSILSSLGENPQRQGLLKTPWRAASAMQFFTKGYQETISDVLNDAIFDEDHDEMVIVKDIDMFSMCEHHLVPFVGKVHIGYLPNKQVLGLSKLARIVEIYSRRLQVQERLTKQIAVAITEALRPAGVGVVVEATHMCMVMRGVQKMNSKTVTSTMLGVFREDPKTREEFLTLIRS
notes: The hGCH1 (42-250, N-terminal 6xHis Tag and TEV cleavage site); 6xHis (N); TEV cleavage site (N); made in house; host or cells: E. coli BL21(DE3)
- Km [1]: 106 µM
